From PubChem BioAssay (NCI)
“And” between values parts separate entries of the source, which are not always exact repeats. Equal entries are not always repeated.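 Dose response: 5 concentrations. Exposure: 48 h. Format: 96-well plates. Endpoint: linear interpolation; highest concentration if not reached. GI50: concentration for 50% inhibition of growth. TGI is the concentration that stops growth completely.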

Legend:
Experiment in all cases: NCI anticancer screen, dose series, 48 h
NCI/ADR-RES ovarian = tested on: NCI/ADR-RES ovarian
MDA-MB-435 = tested on: MDA-MB-435
T-47D breast = tested on: T-47D breast
DU-145 prostate = tested on: DU-145 prostate
XF 498 CNS = tested on: XF 498 CNS
DLD-1 colon = tested on: DLD-1 colon
LXFL 529 NSCLC = tested on: LXFL 529 NSCLC
KM20L2 colon = tested on: KM20L2 colon

Compound	GI50 (NCI/ADR-RES ovarian)	TGI (NCI/ADR-RES ovarian)	GI50 (MDA-MB-435)	TGI (MDA-MB-435)	GI50 (T-47D breast)	TGI (T-47D breast)	GI50 (DU-145 prostate)	TGI (DU-145 prostate)	TGI (XF 498 CNS)	TGI (DLD-1 colon)	TGI (LXFL 529 NSCLC)	TGI (KM20L2 colon)
CN(C)Cc1c[nH]c2c(NCCN)c3c(c(NCCN)c12)C(=O)c1ccccc1C3=O	21.8 µM	> 66.1 µM	1.88 µM	5.2 µM	1.82 µM	14 µM	5.55 µM	18.7 µM	–	–	–	–
C=CCO/N=C/c1cc(NC(=S)c2ccoc2C)ccc1Cl	–	29 µM	–	54.4 µM	–	23.7 µM	–	27.8 µM	–	–	–	–
C=C1CC2(OC1=O)C(=O)N(CCCN1C(=O)C3(CC(=C)C(=O)O3)c3ccccc31)c1ccccc12 (stereo not drawn)	2.52 µM	9.44 µM	1.84 µM	4.2 µM	–	–	1.73 µM	3.52 µM	–	–	–	–
Cc1ncc(C(=O)Nc2ccc(CN3CCN(C)CC3)c(C(F)(F)F)c2)cc1C#Cc1cnc(NC2CC2)c2ncccc12	2.32 µM	5.28 µM	0.513 µM	0.963 µM	5.68 µM	13.5 µM	0.65 µM	1.22 µM	–	–	–	–
CCSc1nc(N)c2cn[nH]c2n1	28.4 µM	85.6 µM	30.8 µM	> 100 µM	17.6 µM	56.4 µM	46.2 µM	> 100 µM	–	–	–	–
O=C(/C=C/c1ccccc1)CC(c1ccccc1)N1CCOCC1 (stereo not drawn)	3.37 µM	16.3 µM	1.91 µM	4.58 µM	4.26 µM	23.5 µM	3.49 µM	10.9 µM	–	–	–	–
CC1CCCc2c1nn(C(=O)/C=C(\N)c1ccccc1)c2N (stereo not drawn)	6.03 µM	39.4 µM	10.7 µM	26.5 µM	3.71 µM	95.1 µM	14.5 µM	> 100 µM	–	–	–	–
COc1ccc(-c2nnc(N3CCN(C(=O)CN4CCN(c5ccc(OC)cc5)CC4)CC3)nc2-c2ccc(OC)cc2)cc1	9.89 µM	31.9 µM	4.01 µM	> 55.9 µM	2.78 µM	9.36 µM	12.2 µM	26.5 µM	–	–	–	–
CNC(=O)c1cc2c(Oc3ccc(NC(=O)C4(C(=O)Nc5ccc(F)cc5)CC4)cc3)ccnc2cc1OC	3.56 µM	> 100 µM	2.28 µM	6.64 µM	2.71 µM	16.3 µM	4.06 µM	> 100 µM	–	–	–	–
Cc1nc(Nc2n[nH]c3c2CN(C(=O)N[C@H](CN(C)C)c2ccccc2)C3(C)C)c2sccc2n1	> 3.65 µM and 17.5 µM	> 100 µM	0.0272 µM and 0.0275 µM	> 3.52 µM and 3.35 µM	0.0942 µM and 0.562 µM	5.47 µM and 8.67 µM	0.156 µM and 0.317 µM	> 10 µM and 15.9 µM	–	–	–	–
Cn1c([N+](=O)[O-])cnc1/C=C1\Oc2cc(Cl)ccc2C1=O	0.884 µM	> 100 µM	0.26 µM	1.05 µM	21.5 µM	> 100 µM	0.413 µM	4.51 µM	–	–	–	–
O=S1(=O)NCCCN1CCNc1nccc(-c2c(-c3cccc(O)c3)nc3sccn23)n1	> 100 µM	> 100 µM	0.563 µM	> 100 µM	23.3 µM	> 100 µM	15.9 µM	> 100 µM	–	–	–	–
CCN(CC)CCNC(=O)c1c(C)[nH]c(/C=C2\C(=O)Nc3ccc(F)cc32)c1C	> 10 µM and 4.48 µM and 5.31 µM	> 10 µM and 13.4 µM and 17.9 µM	2.8 µM and 1.63 µM and 1.78 µM	> 10 µM and 5.1 µM and 8.49 µM	> 10 µM and > 20 µM and 15.9 µM	> 10 µM and > 20 µM and 35.3 µM	3.73 µM and 2.83 µM and 2.19 µM	> 10 µM and 20 µM and 15.5 µM	–	–	–	–
Cn1c(/C(C#N)=C/c2ccc3ccccc3c2)cc2ccccc21	0.0648 µM	> 100 µM	0.0317 µM	0.109 µM	–	> 100 µM	0.456 µM	> 100 µM	–	–	–	–
C=CCSc1nc2ccccc2c(=O)n1Cc1ccco1	–	> 100 µM	–	> 100 µM	–	> 100 µM	–	> 100 µM	–	–	–	–
CCC1=C[C@@H]2CN(C1)Cc1c([nH]c3ccccc13)[C@@](C(=O)OC)(c1cc3c(cc1OC)N(C)[C@H]1[C@@](O)(C(=O)OC)[C@H](OC(C)=O)[C@]4(CC)[C@@H]5C[C@@H]5CN5CC[C@]31[C@@H]54)C2	0.111 µM and 0.662 µM	2.82 µM and 22.6 µM	–	–	–	11.5 µM and 23.9 µM	< 0.005 µM	–	–	–	–	–
C[C@H](Cn1ncnn1)Nc1ncc2cc(Oc3ccc(F)cc3F)c(=O)n(C)c2n1	> 25 µM	> 25 µM	> 25 µM	> 25 µM	> 25 µM	> 25 µM	> 25 µM	> 25 µM	–	–	–	–
O=S(=O)(CCOCc1ccc(-c2ccc3ncnc(Nc4ccc(OCc5cccc(F)c5)c(Cl)c4)c3c2)o1)c1ccccc1	> 25 µM	> 25 µM	> 25 µM	> 25 µM	> 6.73 µM	> 25 µM	> 25 µM	> 25 µM	–	–	–	–
CCC(=C(c1ccc(OCCCN(C)C)cc1)c1ccc(OCCCN(C)C)cc1)c1ccc(Cl)cc1	1.95 µM	4.14 µM	0.292 µM	0.556 µM	0.86 µM	3.16 µM	1.01 µM	3.16 µM	–	–	–	–
COCCOCCOCc1n(Cc2ccc3ccccc3n2)c2ccccc2[n+]1Cc1ccc2ccccc2c1	23.4 µM	> 100 µM	0.339 µM	1.31 µM	0.293 µM	2.08 µM	0.593 µM	12.6 µM	–	–	–	–
CC(=O)N[C@H](C(=O)N[C@@H](CCCNC(=N)N)C(=O)N[C@@H](CCCCN)C(=O)N[C@@H](CCCNC(=N)N)C(=O)N[C@]1(C)CCCCCC/C=C\CCC[C@@](C)(C(=O)N[C@@H](CCCNC(=N)N)C(=O)N[C@@H](CCC(=O)O)C(=O)N[C@@H](CC(C)C)C(=O)N[C@H](C(=O)N[C@@H](CCC(=O)O)C(N)=O)C(C)C)NC(=O)[C@H](CCC(N)=O)NC(=O)[C@H](CC(C)C)NC(=O)[C@H](CC(C)C)NC(=O)[C@H](CCCNC(=N)N)NC(=O)[C@H](CCCNC(=N)N)NC(=O)[C@H](CC(C)C)NC1=O)C(C)C	6.82 µM	> 50 µM	1.42 µM	4.28 µM	1.03 µM	2.31 µM	1.87 µM	7.44 µM	–	–	–	–
O=C(c1ccc2ccccc2c1)c1c(C(F)(F)F)n([O-])c2ccc(Cl)cc2[n+]1=O	1.89 µM	3.86 µM	1.66 µM	3.17 µM	0.453 µM	1.78 µM	1.47 µM	2.79 µM	–	–	–	–
CSc1c(C)c(C)nn1-c1ccccc1	–	–	–	–	–	–	–	–	> 100 µM	> 100 µM	> 100 µM	> 100 µM
O=C(O)CCC(NC(=S)S)C(=O)O.[Na+].[Zn+2] (stereo not drawn)	> 50 µM	> 50 µM	> 50 µM	> 50 µM	> 50 µM	> 50 µM	> 50 µM	> 50 µM	–	–	–	–
